A short description of assay [1]: Antibacterial activity against Francisella novicida U112 after 48 hrs. It counts as functional, Francisella tularensis subsp. novicida U112. The settings on record: Francisella tularensis.
A short description of assay [2]: Potentiation of FR900098-induced antibacterial activity against Francisella novicida U112 assessed as FR900098 MIC after 48 hrs. The settings on record: Francisella tularensis. In kind it is functional, Francisella tularensis subsp. novicida U112.
The nature of assay [3]: Potentiation of FR900098-induced antibacterial activity against Francisella novicida U112 assessed as fold reduction in FR900098 MIC after 48 hrs. It counts as functional, Francisella tularensis subsp. novicida U112.
Assay [4] in a line: Antibacterial activity against Francisella philomiragia ATCC 25015 after 48 hrs. The settings on record: ATCC 25015, 48 h. In kind it is functional, Francisella philomiragia subsp. philomiragia ATCC 25015.
A short description of assay [5]: Potentiation of FR900098-induced antibacterial activity against Francisella philomiragia ATCC 25015 assessed as fold reduction in FR900098 MIC after 48 hrs. It counts as functional, Francisella philomiragia subsp. philomiragia ATCC 25015.
A short description of assay [6]: Potentiation of FR900098-induced antibacterial activity against Francisella novicida U112 assessed as fold reduction in FR900098 MIC at 40 uM after 48 hrs. In kind it is functional, Francisella tularensis subsp. novicida U112.
The nature of assay [7]: Potentiation of FR900098-induced antibacterial activity against Francisella novicida U112 assessed as FR900098 MIC at 40 uM after 48 hrs. The settings on record: Francisella tularensis. In kind it is functional, Francisella tularensis subsp. novicida U112.
Assay [8] relates to Francisella tularensis subsp. novicida U112. In words: Bactericidal activity against Francisella novicida U112 at 25% antibacterial MIC up to 24 hrs by time kill curve assay. It counts as functional.
Assay [9] shares this test system. In words: Potentiation of FR900098-induced antibacterial activity against Francisella novicida U112 assessed as reduction in FR900098 MIC at <30 uM after 48 hrs. In kind it is functional.

Calls of active or inactive are those of the source. The calls are words filed in the database; no cut-off is given here.

Broadly, the MIC is the lowest concentration found to suppress growth. Take `CCCCCCc1ccc(C2=NCCN2)cc1`: the MIC in assay [1] was determined as 100 µM; in [2] it was 16 µg/mL.

On to `CCCCCc1ccc(C2=NCCS2)cc1`, for which the figures for the MIC in assay [1] and in [2] were 200 µM and 1 µg/mL, respectively. Further, in assay [3], the “fold change (FC)” value is on record as 16.

Turning to `CCCCCc1ccc(C2=NCCO2)cc1`, the MIC in [1] is 200 µM; in assay [2], 4 µg/mL; in assay [4], 200 µM. For the same compound, in assay [5], the “fold change (FC)” value is reported as 4.

For the compound `Brc1cccc(C2=NCCO2)c1`, the minimum inhibitory concentration (MIC) in assay [1] was above 200 µM; in assay [2] it was 16 µg/mL.

For `CCCCCCc1ccc(C2=NCCS2)cc1`, the values for the minimum inhibitory concentration (MIC) in [1] and in assay [2] were above 200 µM and 2 µg/mL, respectively. Further, the “fold change (FC)” value in assay [3] was determined as 8.

For `c1ccc(C2=NCCO2)cc1`, the values for the minimal inhibitory concentration (MIC) in [1] and in [2] were above 200 µM and 16 µg/mL, respectively.

Consider `c1cc(C2=NCCO2)ccn1`, for which the MIC in assay [1] is above 200 µM; in assay [2], 16 µg/mL.

As to `CN(C)c1ccc(C2=NCCO2)cc1`, the minimal inhibitory concentration (MIC) in assay [1] was above 200 µM; in assay [2], 16 µg/mL.

Turning to `CCCCCc1ccc(-c2ncco2)cc1`, the MIC turned out to be 200 µM in [1] and 16 µg/mL in assay [2].

Regarding `CC(=O)N(O)CCCP(=O)(O)O` [FR-900098], the results for the MIC in [1] and in assay [4] were 16 µg/mL and 1020 µg/mL, respectively.

On to `CCCCc1ccc(C2=NCCO2)cc1`, for which the minimum inhibitory concentration (MIC) in [1] was above 200 µM; in assay [2] it was 4 µg/mL. The “fold change (FC)” value in assay [3] came out at 4.

For the compound `CCCCCCc1ccc(-c2cncnc2)cc1`, the MIC is 100 µM in assay [1] and 4 µg/mL in assay [2]. The “fold change (FC)” value in [3] came out at 32.

As for `CCCCCCc1ccc(-c2ncco2)cc1`, the results for the minimum inhibitory concentration (MIC) in assay [1] and in assay [2] were above 200 µM and 16 µg/mL, respectively.

For `CCCCCCc1ccc(C2OCCO2)cc1`, the minimal inhibitory concentration (MIC) was above 200 µM in [1] and 16 µg/mL in assay [2].

`CCCCCCCCc1ccc(C2=NCCO2)cc1`: the minimal inhibitory concentration (MIC) in assay [1] was 200 µM; in [2] it was 2 µg/mL. The “fold change (FC)” value in assay [3] is on record as 8.

For `CCCCCCCCCc1ccc(C2=NCCO2)cc1`, the minimal inhibitory concentration (MIC) was above 200 µM in assay [1] and 16 µg/mL in assay [2]. Moreover, the “fold change (FC)” value in assay [3] is 8.

Take `Fc1cc(C2=NCCO2)ccc1C(F)(F)F`: the minimal inhibitory concentration (MIC) is above 200 µM in assay [1] and 16 µg/mL in assay [2].

`CCCCCCc1ccc(-c2ccncc2)cc1`: the MIC in assay [1] was found to be 100 µM; in assay [2], 0.5 µg/mL.

Consider `Cc1ccc(C2=NCCO2)cc1`, for which the MIC in assay [1] was above 200 µM; in [2] it was 16 µg/mL.

`CCCCCCc1ccc(C2SCCS2)cc1`: the minimal inhibitory concentration (MIC) in assay [1] is above 200 µM; in assay [2] it was 16 µg/mL.

For `CCCCCCc1ccc(C2=NCCCO2)cc1`, the MIC in [1] stood at 50 µM; in assay [2], 4 µg/mL. The “fold change (FC)” value in assay [3] is given as 4.

Consider `CCCCCCCCCCc1ccc(C2=NCCO2)cc1`, for which the minimal inhibitory concentration (MIC) in assay [1] is above 200 µM; in assay [2], 16 µg/mL. Further, the “fold change (FC)” value in [3] was found to be 8.

For the compound `CCCCCCc1ccc(C(=O)OC)cc1`, the results for the MIC in [1] and in assay [2] were 200 µM and 8 µg/mL, respectively.

As to `c1ccc2cc(C3=NCCO3)ccc2c1`, the figures for the MIC in [1] and in assay [2] were 100 µM and 16 µg/mL, respectively.

Consider `C(=C\c1ccccc1)/C1=NCCO1`, for which the figures for the MIC in assay [1] and in assay [2] were above 200 µM and 32 µg/mL, respectively.

For the compound `CCc1ccc(C2=NCCO2)cc1`, the MIC in [1] was above 200 µM; in [2], 16 µg/mL.

As for `CCCCCCc1ccc(-c2c[nH]c(N)n2)cc1`, the values for the minimum inhibitory concentration (MIC) in [1] and in [2] were 12.5 µM and 32 µg/mL, respectively.

With `CCCCCCc1ccc(-c2ncc[nH]2)cc1`, the values for the MIC in [1] and in assay [2] were 12.5 µM and 32 µg/mL, respectively.

On to `CCCCCCCc1ccc(C2=NCCO2)cc1`, for which the values for the minimum inhibitory concentration (MIC) in assay [1] and in [2] were 100 µM and 2 µg/mL, respectively. The “fold change (FC)” value in assay [3] is on record as 8.

As for `CCCc1ccc(C2=NCCO2)cc1`, the minimal inhibitory concentration (MIC) is above 200 µM in assay [1] and 16 µg/mL in assay [2].

With `c1ccc(/N=N/c2ccc(C3=NCCO3)cc2)cc1`, the minimal inhibitory concentration (MIC) in [1] is above 200 µM; in [2], 16 µg/mL.

Consider `CCCCCCc1ccc(C2=NCCO2)cc1`, for which the values for the MIC in assay [1] and in assay [7] were above 200 µM and 0.0156 µg/mL, respectively. Moreover, the entries for the “fold change (FC)” value in assay [5] and in assay [6] were 32 and 1000, respectively. The result in assay [8] and in assay [9] was inactive.

On to `Fc1cc(C2=NCCO2)cc(F)c1F`, for which the MIC is above 200 µM in assay [1] and 16 µg/mL in [2].

For the origin of these results see ChEMBL document CHEMBL3992489, “Potentiation of the Fosmidomycin analogue FR 900098 with substituted 2-oxazolines against Francisella novicida” (2016).
